Results published in ChEMBL document CHEMBL1201862, “PubChem BioAssay data set” (2004).
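Values below derive from 48-hour exposures of cells grown in 96-well plates, with endpoints linearly interpolated between the two concentrations bracketing the appropriate inhibition level. Abbreviation: GI50, concentration required for 50% inhibition of growth.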 Calls of active or inactive are those of the source. Rule as the data show it: active = GI50 up to about 1.1 µM and inactive = higher.

Legend:
Assay in all cases: NCI-60 cell line screen, 48 h
786-0 = tested on: 786-0
A498 = tested on: A498
A549 = tested on: A549
ACHN = tested on: ACHN
CAKI-1 = tested on: CAKI-1
CCRF-CEM = tested on: CCRF-CEM
COLO 205 = tested on: COLO 205
DLD-1 = tested on: DLD-1
DMS-114 = tested on: DMS-114
DMS-273 = tested on: DMS-273
EKVX = tested on: EKVX
HCC 2998 = tested on: HCC 2998
HCT-116 = tested on: HCT-116
HCT-15 = tested on: HCT-15
HL-60 = tested on: HL-60
HOP-18 = tested on: HOP-18
HOP-62 = tested on: HOP-62
HOP-92 = tested on: HOP-92
HT-29 = tested on: HT-29
IGROV-1 = tested on: IGROV-1
K562 = tested on: K562
KM-20L2 = tested on: KM-20L2
KM12 = tested on: KM12
LOX IMVI = tested on: LOX IMVI
LXFL 529 = tested on: LXFL 529
M14 = tested on: M14
M19-MEL = tested on: M19-MEL
MOLT-4 = tested on: MOLT-4
Malme-3M = tested on: Malme-3M
NCI-H226 = tested on: NCI-H226
NCI-H23 = tested on: NCI-H23
NCI-H460 = tested on: NCI-H460
NCI-H522 = tested on: NCI-H522
OVCAR-3 = tested on: OVCAR-3
OVCAR-5 = tested on: OVCAR-5
OVCAR-8 = tested on: OVCAR-8
RPMI-8226 = tested on: RPMI-8226
RXF 393 = tested on: RXF 393
SF-268 = tested on: SF-268
SF-295 = tested on: SF-295
SF-539 = tested on: SF-539
SK-MEL-28 = tested on: SK-MEL-28
SK-MEL-2 = tested on: SK-MEL-2
SK-MEL-5 = tested on: SK-MEL-5
SK-OV-3 = tested on: SK-OV-3
SN12C = tested on: SN12C
SNB-19 = tested on: SNB-19
SNB-75 = tested on: SNB-75
SNB-78 = tested on: SNB-78
SW-620 = tested on: SW-620
TK-10 = tested on: TK-10
U-251 = tested on: U-251
UACC-257 = tested on: UACC-257
UACC-62 = tested on: UACC-62
UO-31 = tested on: UO-31
XF498 = tested on: XF498
OVCAR-4 = tested on: OVCAR-4
SR = tested on: SR

Cc1ccccc1N1C(=O)C2C=CC(n3[nH]c(=O)n(Cc4ccccc4)c3=O)CC2C1=O (stereo unspecified)
GI50 (786-0): > 100 µM (inactive)
GI50 (A498): > 100 µM (inactive)
GI50 (A549): > 100 µM (inactive)
GI50 (ACHN): > 100 µM (inactive)
GI50 (CAKI-1): > 100 µM (inactive)
GI50 (CCRF-CEM): > 100 µM (inactive)
GI50 (COLO 205): > 100 µM (inactive)
GI50 (DLD-1): > 100 µM (inactive)
GI50 (DMS-114): > 100 µM (inactive)
GI50 (DMS-273): > 100 µM (inactive)
GI50 (EKVX): > 100 µM (inactive)
GI50 (HCC 2998): > 100 µM (inactive)
GI50 (HCT-116): > 100 µM (inactive)
GI50 (HCT-15): > 100 µM
GI50 (HL-60): > 100 µM (inactive)
GI50 (HOP-18): > 100 µM (inactive)
GI50 (HOP-62): > 100 µM (inactive)
GI50 (HOP-92): > 100 µM (inactive)
GI50 (HT-29): > 100 µM (inactive)
GI50 (IGROV-1): > 100 µM (inactive)
GI50 (K562): > 100 µM (inactive)
GI50 (KM-20L2): > 100 µM (inactive)
GI50 (KM12): > 100 µM (inactive)
GI50 (LOX IMVI): > 100 µM (inactive)
GI50 (LXFL 529): > 100 µM (inactive)
GI50 (M14): > 100 µM (inactive)
GI50 (M19-MEL): > 100 µM (inactive)
GI50 (MOLT-4): > 100 µM (inactive)
GI50 (Malme-3M): > 100 µM (inactive)
GI50 (NCI-H226): > 100 µM (inactive)
GI50 (NCI-H23): > 100 µM (inactive)
GI50 (NCI-H460): > 100 µM (inactive)
GI50 (NCI-H522): > 100 µM (inactive)
GI50 (OVCAR-3): > 100 µM (inactive)
GI50 (OVCAR-5): > 100 µM (inactive)
GI50 (OVCAR-8): > 100 µM (inactive)
GI50 (RPMI-8226): > 100 µM (inactive)
GI50 (RXF 393): > 100 µM (inactive)
GI50 (SF-268): > 100 µM (inactive)
GI50 (SF-295): > 100 µM (inactive)
GI50 (SF-539): > 100 µM (inactive)
GI50 (SK-MEL-28): > 100 µM (inactive)
GI50 (SK-MEL-2): > 100 µM (inactive)
GI50 (SK-MEL-5): > 100 µM (inactive)
GI50 (SK-OV-3): > 100 µM (inactive)
GI50 (SN12C): > 100 µM (inactive)
GI50 (SNB-19): > 100 µM (inactive)
GI50 (SNB-75): 70 µM (inactive)
GI50 (SNB-78): > 100 µM (inactive)
GI50 (SW-620): > 100 µM (inactive)
GI50 (TK-10): > 100 µM (inactive)
GI50 (U-251): > 100 µM (inactive)
GI50 (UACC-257): > 100 µM (inactive)
GI50 (UACC-62): > 100 µM (inactive)
GI50 (UO-31): > 100 µM (inactive)
GI50 (XF498): > 100 µM (inactive)

c1ccc2c(c1)nnn2CNc1ccc(N2CCOCC2)cc1
GI50 (786-0): > 100 µM (inactive)
GI50 (A498): > 100 µM (inactive)
GI50 (A549): > 100 µM (inactive)
GI50 (ACHN): 67.3 µM (inactive)
GI50 (CCRF-CEM): > 100 µM (inactive)
GI50 (COLO 205): > 100 µM (inactive)
GI50 (DLD-1): > 100 µM (inactive)
GI50 (DMS-114): > 100 µM (inactive)
GI50 (DMS-273): > 100 µM (inactive)
GI50 (EKVX): > 100 µM (inactive)
GI50 (HCC 2998): > 100 µM (inactive)
GI50 (HCT-116): > 100 µM (inactive)
GI50 (HCT-15): > 100 µM
GI50 (HL-60): 33.3 µM (inactive)
GI50 (HOP-18): > 100 µM (inactive)
GI50 (HOP-62): > 100 µM (inactive)
GI50 (HOP-92): > 100 µM (inactive)
GI50 (HT-29): > 100 µM (inactive)
GI50 (IGROV-1): > 100 µM (inactive)
GI50 (K562): > 100 µM (inactive)
GI50 (KM-20L2): > 100 µM (inactive)
GI50 (KM12): > 100 µM (inactive)
GI50 (LOX IMVI): > 100 µM (inactive)
GI50 (LXFL 529): > 100 µM (inactive)
GI50 (M14): > 100 µM (inactive)
GI50 (M19-MEL): > 100 µM (inactive)
GI50 (MOLT-4): > 100 µM (inactive)
GI50 (Malme-3M): > 100 µM (inactive)
GI50 (NCI-H226): > 100 µM (inactive)
GI50 (NCI-H23): > 100 µM (inactive)
GI50 (NCI-H460): > 100 µM (inactive)
GI50 (NCI-H522): > 100 µM (inactive)
GI50 (OVCAR-3): > 100 µM (inactive)
GI50 (OVCAR-4): > 100 µM (inactive)
GI50 (OVCAR-8): > 100 µM (inactive)
GI50 (RPMI-8226): 47.4 µM (inactive)
GI50 (RXF 393): > 100 µM (inactive)
GI50 (SF-268): > 100 µM (inactive)
GI50 (SF-295): > 100 µM (inactive)
GI50 (SF-539): > 100 µM (inactive)
GI50 (SK-MEL-28): > 100 µM (inactive)
GI50 (SK-MEL-2): > 100 µM (inactive)
GI50 (SK-OV-3): > 100 µM (inactive)
GI50 (SN12C): > 100 µM (inactive)
GI50 (SNB-19): > 100 µM (inactive)
GI50 (SNB-75): > 100 µM (inactive)
GI50 (SNB-78): > 100 µM (inactive)
GI50 (SR): 43.3 µM (inactive)
GI50 (SW-620): > 100 µM (inactive)
GI50 (TK-10): > 100 µM (inactive)
GI50 (U-251): > 100 µM (inactive)
GI50 (UACC-257): > 100 µM (inactive)
GI50 (UACC-62): > 100 µM (inactive)
GI50 (UO-31): > 100 µM (inactive)
GI50 (XF498): > 100 µM (inactive)
